Measurements reported in BigSolDB 2.1.

CC(C)(C)OC(=O)N[C@@H](CCC(N)=O)C(=O)O
solubility (mole fraction)
Details	283.15 K	288.15 K	293.15 K	298.15 K	303.15 K	308.15 K	313.15 K	318.15 K	323.15 K
in 2-butanone	0.0208	0.0219	0.0247	0.0294	0.035	0.0408	0.0517	0.068	0.0995
in acetone	0.0586	0.0675	0.0797	0.0959	0.105	0.127	0.146	0.168	0.187
in acetonitrile	0.00293	0.00389	0.00493	0.0064	0.008	0.0113	0.0165	0.0243	0.0356
in ethanol	0.13	0.139	0.148	0.155	0.165	0.177	0.191	0.202	–
in ethyl acetate	0.00199	0.00241	0.00301	0.00377	0.00475	0.00596	0.00774	0.0102	0.0145
in isobutanol	0.0317	0.0398	0.0479	0.055	0.0676	0.0766	0.0843	0.0943	0.108
in isopropanol	0.0536	0.0626	0.0789	0.0922	0.108	0.124	0.153	0.175	0.198
in methyl acetate	0.00534	0.00588	0.00699	0.00843	0.0115	0.0173	0.0254	0.0393	0.0649
in n-butanol	0.0427	0.0487	0.0554	0.0649	0.0748	0.0924	0.119	0.146	–
in n-pentanol	0.0343	0.0352	0.0382	0.0417	0.0481	0.0573	0.07	0.0946	–
in n-propanol	0.057	0.0698	0.0803	0.0938	0.116	0.135	0.162	0.207	–
in water	0.00718	0.00807	0.00935	0.0126	0.0205	0.0307	0.0554	0.0905	–
